Experimental data taken from PubChem BioAssay (NCI).
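Grown in 96-well plates, cells were treated for 48 hours with each compound at five concentrations. Insufficient inhibition: endpoint recorded as highest concentration tested. TGI: total growth inhibition.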

Experiments:
Assay in all cases: DTP human tumour cell line panel, 48 h
786-0 renal = system: 786-0 renal
A498 renal = system: A498 renal
ACHN renal = system: ACHN renal
CCRF-CEM leukemia = system: CCRF-CEM leukemia
HCC-2998 colon = system: HCC-2998 colon
IGROV1 ovarian = system: IGROV1 ovarian
K-562 leukemia = system: K-562 leukemia
MDA-MB-435 = system: MDA-MB-435
MDA-N = system: MDA-N
NCI-H460 lung = system: NCI-H460 lung
OVCAR-5 ovarian = system: OVCAR-5 ovarian
RXF 393 renal = system: RXF 393 renal
SF-539 CNS = system: SF-539 CNS
SK-MEL-2 melanoma = system: SK-MEL-2 melanoma
SK-OV-3 ovarian = system: SK-OV-3 ovarian
SNB-19 CNS = system: SNB-19 CNS
SNB-75 CNS = system: SNB-75 CNS
SW-620 colon = system: SW-620 colon
U251 CNS = system: U251 CNS
HT29 colon = system: HT29 colon

O=S(=O)(O)c1ccc2cccc(N=Nc3c(O)ccc4ccccc34)c2c1
TGI (786-0 renal): > 100 µM | TGI (A498 renal): > 100 µM | TGI (ACHN renal): > 100 µM | TGI (CCRF-CEM leukemia): > 100 µM | TGI (HCC-2998 colon): > 100 µM | TGI (IGROV1 ovarian): > 100 µM | TGI (K-562 leukemia): > 100 µM | TGI (MDA-MB-435): > 100 µM | TGI (MDA-N): > 100 µM | TGI (NCI-H460 lung): > 100 µM | TGI (OVCAR-5 ovarian): > 100 µM | TGI (RXF 393 renal): > 100 µM | TGI (SF-539 CNS): > 100 µM | TGI (SK-MEL-2 melanoma): > 100 µM | TGI (SK-OV-3 ovarian): > 100 µM | TGI (SNB-19 CNS): > 100 µM | TGI (SNB-75 CNS): > 100 µM | TGI (SW-620 colon): > 100 µM | TGI (U251 CNS): > 100 µM

O=[N+]([O-])c1ccc(-c2nnc(C34CC5CC(CC(C5)C3)C4)o2)cc1
TGI (786-0 renal): > 100 µM | TGI (A498 renal): > 100 µM | TGI (ACHN renal): > 100 µM | TGI (CCRF-CEM leukemia): > 100 µM | TGI (HCC-2998 colon): > 100 µM | TGI (HT29 colon): > 100 µM | TGI (IGROV1 ovarian): > 100 µM | TGI (K-562 leukemia): > 100 µM | TGI (MDA-MB-435): > 100 µM | TGI (MDA-N): > 100 µM | TGI (NCI-H460 lung): > 100 µM | TGI (OVCAR-5 ovarian): > 100 µM | TGI (RXF 393 renal): > 100 µM | TGI (SF-539 CNS): > 100 µM | TGI (SK-MEL-2 melanoma): > 100 µM | TGI (SK-OV-3 ovarian): > 100 µM | TGI (SNB-19 CNS): > 100 µM | TGI (SNB-75 CNS): > 100 µM | TGI (SW-620 colon): > 100 µM | TGI (U251 CNS): > 100 µM

O=C1C=C2C(=NC34CCCCC3C(c3ccccc3)C3=C(c5ccccc5CC3)N24)c2ccccc21 (centres undefined)
TGI (786-0 renal): > 10 µM | TGI (A498 renal): > 10 µM | TGI (ACHN renal): > 10 µM | TGI (CCRF-CEM leukemia): > 10 µM | TGI (HCC-2998 colon): > 10 µM | TGI (HT29 colon): > 10 µM | TGI (IGROV1 ovarian): > 10 µM | TGI (K-562 leukemia): > 10 µM | TGI (MDA-MB-435): > 10 µM | TGI (MDA-N): > 10 µM | TGI (NCI-H460 lung): > 10 µM | TGI (OVCAR-5 ovarian): > 10 µM | TGI (RXF 393 renal): > 10 µM | TGI (SF-539 CNS): > 10 µM | TGI (SK-MEL-2 melanoma): > 10 µM | TGI (SK-OV-3 ovarian): > 10 µM | TGI (SNB-19 CNS): > 10 µM | TGI (SNB-75 CNS): > 10 µM | TGI (SW-620 colon): > 10 µM | TGI (U251 CNS): > 10 µM

Cc1nc(N)nc(N)c1-c1ccc(Cl)c(Cl)c1
TGI (786-0 renal): > 100 µM | TGI (A498 renal): > 80.6 µM | TGI (ACHN renal): > 100 µM | TGI (CCRF-CEM leukemia): > 100 µM | TGI (HCC-2998 colon): > 50.6 µM | TGI (HT29 colon): > 100 µM | TGI (IGROV1 ovarian): > 100 µM | TGI (K-562 leukemia): > 100 µM | TGI (MDA-MB-435): > 100 µM | TGI (MDA-N): > 100 µM | TGI (NCI-H460 lung): > 92.1 µM | TGI (OVCAR-5 ovarian): > 100 µM | TGI (RXF 393 renal): > 79.9 µM | TGI (SF-539 CNS): > 100 µM | TGI (SK-MEL-2 melanoma): > 90.6 µM | TGI (SK-OV-3 ovarian): > 100 µM | TGI (SNB-19 CNS): > 100 µM | TGI (SNB-75 CNS): > 76.4 µM | TGI (SW-620 colon): > 100 µM | TGI (U251 CNS): > 100 µM

CN(CC1(CO)CCC1)c1cc(Cl)nc(N)n1
TGI (786-0 renal): > 100 µM | TGI (A498 renal): > 100 µM | TGI (ACHN renal): > 100 µM | TGI (CCRF-CEM leukemia): > 100 µM | TGI (HCC-2998 colon): > 100 µM | TGI (HT29 colon): > 100 µM | TGI (IGROV1 ovarian): > 100 µM | TGI (K-562 leukemia): > 100 µM | TGI (MDA-MB-435): > 100 µM | TGI (MDA-N): > 100 µM | TGI (NCI-H460 lung): > 100 µM | TGI (OVCAR-5 ovarian): > 100 µM | TGI (RXF 393 renal): > 100 µM | TGI (SF-539 CNS): > 100 µM | TGI (SK-MEL-2 melanoma): > 100 µM | TGI (SK-OV-3 ovarian): > 100 µM | TGI (SNB-19 CNS): > 100 µM | TGI (SNB-75 CNS): > 100 µM | TGI (SW-620 colon): > 100 µM | TGI (U251 CNS): > 100 µM

CC(NNC(=O)c1ccncc1)c1ccc(F)cc1 (centres undefined)
TGI (786-0 renal): > 100 µM | TGI (A498 renal): > 100 µM | TGI (ACHN renal): > 100 µM | TGI (CCRF-CEM leukemia): > 100 µM | TGI (HCC-2998 colon): > 100 µM | TGI (HT29 colon): > 100 µM | TGI (IGROV1 ovarian): > 100 µM | TGI (K-562 leukemia): > 100 µM | TGI (MDA-MB-435): > 100 µM | TGI (MDA-N): > 100 µM | TGI (NCI-H460 lung): > 100 µM | TGI (OVCAR-5 ovarian): > 100 µM | TGI (RXF 393 renal): > 100 µM | TGI (SF-539 CNS): > 100 µM | TGI (SK-MEL-2 melanoma): > 100 µM | TGI (SK-OV-3 ovarian): > 100 µM | TGI (SNB-19 CNS): > 100 µM | TGI (SNB-75 CNS): > 100 µM | TGI (SW-620 colon): > 100 µM | TGI (U251 CNS): > 100 µM
